This is an account of results in patent US6660774B2, “Use of (+)-tramadol, O-demethyltramadol or (+)-O-demethyl-tramadol, O-desmethyl-N-mono-desmethyl-tramadol or (+)- O-desmethyl-N-mono-desmethyltramadol” (Gruenethal GmbH, priority 1999, dated 2003).

Each structure is given as a SMILES string.

The assay deals with virgin, female Sprague-Dawley rats (bladder function). Kind of assay: Cystometric testing on conscious, virgin rats. In kind it is in vivo, rat.
The mark [1] stands for this setting: 10.0 μg/kg i.t., Diff.: change relative to the initial value.
[2] abbreviates: 10.0 μg/kg i.t., h: after administration, at maximum action.
The mark [3] stands for this setting: 10.0 μg/kg i.t., v: before administration (initial value).
[4] abbreviates: 10.0 mg/kg i.v., Diff.: change relative to the initial value.
The mark [5] stands for this setting: 10.0 mg/kg i.v., h: after administration, at maximum action.
Setting [6] is: 10.0 mg/kg i.v., v: before administration (initial value).

Turning to `CN(C)CC1CCCCC1(O)c1cccc(O)c1` (stereo not drawn) [O-demethyltramadol], where the note is “even at low concentrations”, the “effect on bladder function (in words)” value is listed as “clear effect”.

As to `CNCC1CCCCC1(O)c1cccc(O)c1` (single isomer, unassigned; (+)) [(+)-M5, (+)-O-desmethyl-N-mono-desmethyltramadol], under setting [1], the Basal pressure result is “Diff.: −9%”, the Bladder capacity entry is listed as “Diff.: +61%”, the Inter-contraction interval entry is on record as “Diff.: +38%” and the Micturition pressure result is “Diff.: −46%”. In addition, under setting [1], the Micturition volume entry is reported as “Diff.: +36%”, the Residual volume result is “Diff.: +162%” and the Threshold pressure result is “Diff.: +46%”. Further, under setting [2], the Basal pressure result is on record as “h: 4.25 ± 0.33 cm H2O”, the Bladder capacity result is reported as “h: 1.06 ± 0.06 ml”, the Inter-contraction interval result was “h: 5.22 ± 0.27 min” and the Micturition pressure result was “h: 43 ± 6 cm H2O”. Further, under setting [2], the Micturition volume result is given as “h: 0.72 ± 0.04 ml”, the Residual volume result is recorded as “h: 0.34 ± 0.04 ml” and the Threshold pressure result is “h: 10.25 ± 1.01 cm H2O”. Further, under setting [3], the Basal pressure result is listed as “v: 4.68 ± 0.74 cm H2O”, the Bladder capacity entry was “v: 0.66 ± 0.05 ml”, the Inter-contraction interval result was “v: 3.78 ± 0.35 min” and the Micturition pressure entry is on record as “v: 80 ± 9 cm H2O”. Also, under setting [3], the Micturition volume entry is “v: 0.53 ± 0.06 ml”, the Residual volume entry is “v: 0.13 ± 0.01 ml” and the Threshold pressure entry was “v: 7.0 ± 0.93 cm H2O”. Moreover, for the setting “10 mg/kg i.v.”, the “threshold pressure (in words)” value was “distinct rise”. Moreover, under “10.0 mg/kg i.v.”, the “interval between micturition (in words)” value was “not shortened”. Moreover, under setting [4], the Basal pressure entry was “Diff.: +4%”, the Bladder capacity result is “Diff.: −18%”, the Inter-contraction interval entry was “Diff.: −12%” and the Micturition pressure result is recorded as “Diff.: −23%”. Further, under setting [4], the Micturition volume entry is recorded as “Diff.: +9%”, the Residual volume result is recorded as “Diff.: −88%” and the Threshold pressure entry is reported as “Diff.: +69%”. For the same molecule, under setting [5], the Basal pressure result is listed as “h: 3.95 ± 0.35 cm H2O”, the Bladder capacity entry is recorded as “h: 0.72 ± 0.08 ml”, the Inter-contraction interval result is reported as “h: 4.30 ± 0.47 min” and the Micturition pressure result is given as “h: 41 ± 3 cm H2O”. For the same molecule, under setting [5], the Micturition volume entry is on record as “h: 0.86 ± 0.10 ml”, the Residual volume entry is given as “h: 0.01 ± 0.002 ml” and the Threshold pressure result is given as “h: 12.08 ± 1.47 cm H2O”. Besides, under setting [6], the Basal pressure result is on record as “v: 3.78 ± 0.26 cm H2O”, the Bladder capacity result is on record as “v: 0.88 ± 0.09 ml”, the Inter-contraction interval result is reported as “v: 4.92 ± 0.53 min” and the Micturition pressure result is given as “v: 53 ± 4 cm H2O”. Further, under setting [6], the Micturition volume entry is “v: 0.79 ± 0.09 ml”, the Residual volume entry is given as “v: 0.08 ± 0.01 ml” and the Threshold pressure entry is on record as “v: 7.13 ± 0.47 cm H2O”. Further, under “intrathecally”, the “bladder capacity (in words)” value was “distinct increases”, the “interval between micturition (in words)” value is “distinct increases” and the “threshold pressure (in words)” value was “increase”.
